Experimental data reported in patent publication US9199977B2, “Crystal having crystal habits and pharmaceutical composition obtained by processing the crystal” (POLA PHARMA INC., priority 2012, dated 2015).

How the values were obtained:
[1] = HPLC quantification of Z and SE isomers generated in the solution after dissolution; type: physicochemical; conditions: in ethanol solution after dissolution of all crystals
Protocol: (§1) Ethanol containing 10% water was added to luliconazole, followed by being heated, stirred, and filtrated while applying the heat. A filtrate was quickly cooled with an ice bath and the wall surface was scraped with a spatula to perform the recrystallization. Crystals were collected by filtration, followed by being dried by using phosphorus pentaoxide to obtain Crystal 1 of the present invention. In distinct Comparative Example, the same process or treatment was performed while replacing the solvent with a mixture of ethyl acetate/n-hexane (5:1) to obtain Crystal of Comparative Example. The elution or dissolution test was performed for the two types of the crystals to investigate the elution or dissolution profile. After confirming the dissolution of all crystals, the Z isomer and the SE isomer, which were the isomers generated or formed in the solution, were analyzed and quantitatively measured by HPLC assay.
(§2) In the elution or dissolution test, 500 mL of anhydrous ethanol was used as the solvent, and 1 g of luliconazole was dissolved under constant stirring at room temperature. The time, which was required for the dissolution, was simultaneously measured. According to Table 1, it is appreciated that the time required for the dissolution is short for Crystal 1, and thus the generation of the Z isomer and the SE isomer as the isomers is suppressed in the dissolving step.
The condition for HPLC was as follows. Column: CHIRALCEL OD-RH 4.6×150 mm, column temperature: 35° C., mobile phase: mixture of methanol/2% aqueous solution of potassium hexafluorophosphate (85:15, v/v), flow rate: 0.6 mL/min., detection: 295 nm).

[2] = Elution or dissolution test of luliconazole crystals in anhydrous ethanol; type: physicochemical; conditions: 1 g luliconazole in 500 mL anhydrous ethanol, constant stirring, room temperature
Protocol: as §1, §2

Row | Compound | Amount of generation of SE isomer [1] [%] | Amount of generation of Z isomer [1] [%] | Time required until dissolution [2] [min]
1 | N#C/C(=C1/SC[C@@H](c2ccc(Cl)cc2Cl)S1)n1ccnc1 [Crystal 1, luliconazole] | 0.06 | 0.06 | 200
2 | N#C/C(=C1/SC[C@@H](c2ccc(Cl)cc2Cl)S1)n1ccnc1 [Crystal of Comp. Ex., luliconazole] | 0.09 | 0.13 | 300
